Laboratory results from PubChem BioAssay AID179 (DTP/NCI, 2004).
Several values for one entry are separate records, joined by “and”; a condition that tells them apart may be missing. Equal values may be shown once. Activity calls are given as the source filed them.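 Rule for the calls: active = compounds giving half or more protection of infected cells from virus-caused growth loss, again on retest; inactive = the rest.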

System: CEM cells HIV-1 protection, formazan growth assay
Test: NCI AIDS Antiviral Assay
Conditions: for IC50: measured here: growth of uninfected CEM cells
Summary of the method: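 CEM (human) cells, HIV-1 infected vs uninfected, 5-point dosing, formazan growth read-out. Retest threshold 50% protection.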

Structure (SMILES)	EC50	IC50	outcome
O=C(Nc1nc(C23CC4CC(CC(C4)C2)C3)cs1)c1c(O)c2ccccc2[nH]c1=O	> 200 µM	> 200 µM	–
Cc1ncc([N+](=O)[O-])n1CCN(C)CCCCn1ccnc1[N+](=O)[O-]	> 200 µM	> 200 µM	–
CCOC(=O)CCC(=O)C1c2cccc(O)c2C(=O)c2c(O)cc(C)cc21 (stereo unspecified)	> 37.2 µM	1.35 µM	–
c1cc2c(c(CC3CO3)c1CC1CO1)OCCOCCOCCOCCO2 (stereo unspecified)	> 661 µM	1.38 µM	–
CCCCCCCCCCCCCCCC(O)S(=O)(=O)O (stereo unspecified)	> 100 µM	15.1 µM	–
BrC12c3ccccc3Sc3ccccc3C1(Br)c1ccccc12 (stereo unspecified)	–	–	inactive
CCN(CC)CCC(=O)c1ccc(Oc2ccccc2)cc1	> 200 µM	17.4 µM	–
CCOC1CCN(C(=O)c2ccccc2)O1 (stereo unspecified)	> 200 µM	> 200 µM	–
CC(=O)OC1=C(c2ccccc2)c2ccccc2OC1	> 26.9 µM	> 26.9 µM	–
c1ccc(CN(Cc2ccccn2)Cc2ccccn2)cc1	–	–	inactive
CC(=O)OCC(OC(C)=O)C(Cl)CCl (stereo unspecified)	> 200 µM	> 200 µM	–
NC1=C(O)c2cccc3cccc(c23)C1=O	–	–	inactive
Fc1cccc(C2SCc3nc4cc5ccccc5cc4n32)c1 (stereo unspecified)	> 200 µM	> 200 µM	–
COc1ccc(-c2nc(-c3cnccn3)n(COCCO)n2)cc1	> 200 µM	> 200 µM	–
CC(C)(C)C1CCC2c3c([nH]c4ccccc34)C3C(=O)N(c4ccc5c(c4)C(=O)c4ccccc4C5=O)C(=O)C3C2C1 (stereo unspecified)	> 200 µM	> 200 µM	–
COC(=O)/C(=N\NC(N)=O)C(C(=O)C(=O)Nc1ccccc1C(=O)OC)c1nc2ccc(C(=O)c3ccccc3)cc2[nH]c1=O (stereo unspecified)	–	–	inactive
CSc1nc(NC2OC(CO)C(O)C(O)C2O)cc(=O)n1C (stereo unspecified)	–	–	inactive
CSC(SC)=C1C(=O)N(c2ccccc2)N=C1C	> 200 µM	37.2 µM	–
Cc1cnc2nc(N)nc(N)c2n1	> 200 µM	> 200 µM	–
COCOCC1CCCN1CN1CCC[C@H]1COCOC (stereo partly specified)	> 200 µM	107 µM	–
CCCCC1OC2O[C@]3(C)CCC4C(C)CCC([C@H]1C)C24OO3 (stereo partly specified)	> 95.5 µM	22.4 µM	–

Structure (SMILES)	EC50	IC50	outcome
O=C1NC(O)c2cc(Cl)ccc2O1 (stereo unspecified)	–	–	inactive
COc1cc(COC(=O)N[C@H](C(=O)O)C(C)(C)C)c([N+](=O)[O-])cc1OC	> 676 µM	> 676 µM	–
O=[N+]([O-])c1cc2c(c([N+](=O)[O-])c1)NCc1ccccc1O2	> 200 µM	> 200 µM	–
CCOC(=O)Cc1nc(/C(C#N)=C/c2ccco2)[nH]c(=O)c1C#N	–	–	inactive
Cc1ccc(-c2c(C#N)c(-c3ccc([N+](=O)[O-])cc3)c(C#N)c(=O)n2NS(=O)(=O)c2ccccc2)cc1	> 200 µM	16.6 µM	–
N/N=C1\CC(c2ccccc2)Oc2ccccc21 (stereo unspecified)	> 200 µM	182 µM	–
O=C1c2sccc2-c2cccc3cccc1c23	> 63.1 µM	30.9 µM	–
CCCCCCCCCCCCCCCCCC(=O)OC[C@H](COP(=O)(O)OCCNC(=O)CCC(=O)OCCC=C(c1cc(Cl)c(OC)c(C(=O)OC)c1)c1cc(Cl)c(OC)c(C(=O)OC)c1)OC(=O)CCCCCCCCCCCCCCCCC	> 100 µM	> 100 µM	–
COc1ccc(C2=C(Cl)c3cc(OC)c(OC)cc3C2)cc1OC	> 200 µM	> 200 µM	–
Cc1ccc(NCCCN2CCN(CCCNc3ccc(C)c4sc5ccccc5c(=O)c34)CC2)c2c(=O)c3ccccc3sc12	> 100 µM	> 100 µM	–
CC(=O)SCC1OC(n2cc(C)c(=O)[nH]c2=O)C/C1=N\O (stereo unspecified)	> 200 µM	> 200 µM	–
CS(=O)(=O)C1S(=O)(=O)OCCOS1(=O)=O	> 891 µM	> 891 µM	–
C#CCn1c(=O)c2cc(OC)c(OC)cc2n(CC#C)c1=O	–	–	inactive
CC(=O)Nc1sccc1S(=O)(=O)c1ccc(Cl)cc1	> 200 µM	> 200 µM	–
CCn1c(-c2ccccc2)cs/c1=N\C(P(=O)(O)O)P(=O)(O)O	> 200 µM	> 200 µM	–
Cc1cc(=O)[nH]c(NNC(C#N)c2ccc([N+](=O)[O-])cc2)n1 (stereo unspecified)	> 63.1 µM	> 63.1 µM	–
CC(=O)OCCn1c(Cc2ccc([N+](=O)[O-])cc2)nn(C(C)=O)c1=O	> 200 µM	> 200 µM	–
COc1ccc(-c2nc3c(nc2-c2ccc(OC)cc2)N(C)S(=O)(=O)N=C3N)cc1	> 200 µM	11.2 µM	–
Cc1cccc(-n2c(C)nc3ccc(NC(=S)Nc4ccccc4)cc3c2=O)c1	> 200 µM	110 µM	–
CNC(=O)C1(C#N)C(c2ccccc2)C(C#N)(C(=O)NC)C1c1ccccc1 (stereo unspecified)	> 200 µM	166 µM	–
CNC(=S)/C(C#N)=C(\N)N1CCCC1	> 200 µM	> 200 µM	–

Structure (SMILES)	EC50	IC50	outcome
Cc1ccc(C)c(NC(=O)C(=O)C(C2C(C)CC(=O)C2CC(=O)O)[N+](=O)[O-])c1 (stereo unspecified)	> 646 µM	> 646 µM	–
Nc1nc(N)c(CCCCc2ccccc2)c(Cc2ccccc2)n1	–	–	inactive
Cc1nc2ccc(Br)cc2c(=O)n1-c1ccc(NC2OCC(O)C(O)C2O)cc1 (stereo unspecified)	> 200 µM	20.9 µM and 138 µM	–
CCCCCCCCCCCCCCCCOP(=O)([O-])OCC[N+](C)(C)C	> 309 µM	2.45 µM	–
N=S(=O)(c1ccccc1)c1ccccc1[N+](=O)[O-] (stereo unspecified)	53.7 µM	91.2 µM	–
CC1=CC(=O)N(n2c(C)n[nH]c2=O)C1=O	> 200 µM	> 200 µM	–
O=C(CC(C(=O)c1cccs1)c1ccsc1)c1ccsc1 (stereo unspecified)	> 200 µM	11.5 µM	–
N=c1ccn2c(n1)OC1C(OP(=O)(O)O)C(CO)OC12 (stereo unspecified)	> 200 µM	0.437 µM	–
Clc1cccc(C2SCc3nc4ccccc4n32)c1Cl (stereo unspecified)	–	–	inactive
COc1c(OC)c(O)c2c(=O)c(OC)c(-c3ccc4c(c3)OCO4)oc2c1O	> 200 µM	74.1 µM	–
Oc1c(CN2CCOCC2)cc(N=Nc2ccccc2)c(O)c1CN1CCOCC1	> 100 µM	> 100 µM	–
Nc1c(N=Nc2ccc(/C=C/c3ccc(N=Nc4cc(S(=O)(=O)O)c5ccccc5c4N)cc3S(=O)(=O)O)c(S(=O)(=O)O)c2)cc(S(=O)(=O)O)c2ccccc12	8.71 µM	77.6 µM	–
COC(=O)C1(Cc2ccccc2)Cc2cc3c(cc2C1=O)CCC3 (stereo unspecified)	> 200 µM	85.1 µM	–
COc1ccc2c(c1)OC(OC)(c1ccc(OC)c(OC)c1)C(O)(OC)C2=O (stereo unspecified)	> 200 µM	11.2 µM	–
CN(C)c1ccc(/C=C2\C(=O)Nc3ccccc32)cc1	> 10.2 µM	> 10.2 µM	–
COC(=O)C1(Cc2ccccc2)Cc2ccccc2C1=O (stereo unspecified)	> 200 µM	85.1 µM	–
CCOC(=O)C1=C(C)N(c2ccc(C)cc2)C2=C(C(=O)N(c3ccccc3)C2c2ccccc2)C1c1ccccc1 (stereo unspecified)	> 5.01 µM	> 5.01 µM	–
Cc1ccc(C2=Nc3ccccc3SC(c3cccc([N+](=O)[O-])c3)C2)cc1 (stereo unspecified)	> 33.9 µM	6.17 µM	–
O=[N+]([O-])c1ccc(Sc2c3ccccc3nc3ccccc23)cn1	> 100 µM	7.24 µM	–
CC(=O)OC1[C@@H](OC(C)=O)[C@H](OC(C)=O)C2(CO2)[C@H](OC(C)=O)[C@H]1OC(C)=O (stereo partly specified)	> 200 µM	12.3 µM	–
C=CCNC(=S)N/C=C\c1c(C(=O)O)cc([N+](=O)[O-])cc1[N+](=O)[O-]	> 200 µM	> 100 µM	–
